Measured values published in US20250270159A1, “1-(CYCLOBUTANEMETHYLIDENE)-2, 4, 5-TRIMETHOXYBENZENE COMPOUND AND PREPARATION METHOD AND USE THEREOF” (CHENGDU XINRUI TAIKANG TECHNOLOGY CO., LTD., priority 2023, published 2025).

Assays:
[1] = system: rat model of lithium-pilocarpine-induced epilepsy; test: Rat model of lithium-pilocarpine-induced epilepsy (SE), highest seizure grade score; assay type: in vivo, Sprague Dawley (SD) rats; settings: 300 mg/kg oral gavage, 1 h after SE onset; acute phase; Racine 0-6
Description: (1) Experimental Animals: SPF Adult Male Sprague Dawley (SD) Rats, with a Weight of 200-250 g.
Methylscopolamine bromide, lithium chloride, and pilocarpine were weighed, and experimental drugs were dissolved to working concentrations (100 mg/mL of lithium chloride solution, 1 mg/mLof methylscopolamine bromide solution, and 20 mg/mL of pilocarpine solution) with 0.9% saline. Rats were injected intraperitoneally with lithium chloride (a dose of 127 mg/kg), and 18-20 h later, scopolamine methylbromide (a dose of 1 mg/kg) was injected intraperitoneally. […] Thereafter, an additional dose of 10 mg/kg pilocarpine was injected intraperitoneally every 30 min until the onset of a grade IV or higher status epilepticus (SE)-like seizure without significant intermittent intervals, with a maximum dose of 60 mg/kg.
Model inclusion criterion: experimental animals presenting continuous seizures of grade IV or higher for 1 h was judged as successful modeling.
The rats with successful modeling were randomly divided into three groups, namely a model group, a CTMB group, and a sodium valproate (VPA) group. […]
Referring to the grading scale of Racine scores, the seizure symptoms of each group of rats after the drug intervention were observed, and the seizure grades of each group of rats in the acute phase were recorded. […]

[2] = system: neurons of substantia nigra region and striatum of PD mice; test: HE staining of substantia nigra and striatum of PD mice; assay type: in vivo, C57 mice; settings: Group L, levodopa: benserazide hydrochloride=4:1, 12 mg/kg ip, 4 weeks; compared with model group; FIG. 5-7
Description: (§1) The mice were randomly divided into a sham operation group (group S, given a blank emulsion with a volume equal to that of the administered group), a model group (group M, given a blank emulsion with a volume equal to that of the administered group), a CTMB group (20 mg/kg, group D), and a levodopa group (levodopa: benserazide hydrochloride=4:1, 12 mg/kg, group L), each group included 10-12 mice, and all of them were administered intraperitoneally.
(§2) After completing the evaluation of motor function after 4 weeks of drug administration, the mice were deeply anesthetized, perfused with 20 mL of saline and 20 mL of 4% paraformaldehyde via the heart, and the brains were rapidly severed and extracted from the head, which were then preserved and fixed in 4% paraformaldehyde for 72 h after removal, and then embedded with paraffin to prepare the slices with a thickness of 4 μm for subsequent pathological and histological studies.
Hematoxylin-eosin (HE) staining may be used to observe changes in the pathological condition of brain tissue. […]

[3] = system: Tyrosine hydroxylase (TH) protein expression; test: TH protein expression by immunohistochemistry in substantia nigra of PD mice; assay type: in vivo, C57 mice; settings: Group L, levodopa: benserazide hydrochloride=4:1, 12 mg/kg ip, after 4 weeks of administration
Description: as §1, §2
Tyrosine hydroxylase (TH) protein expression was detected by immunohistochemistry. […]

[4] = system: Parkinson's disease (PD) mice, 6-OHDA method; test: 6-OHDA Parkinson's disease mice, rod-climbing experiment; assay type: in vivo, C57 mice; settings: Group L, levodopa: benserazide hydrochloride=4:1, 12 mg/kg ip
Description: as §1
(§3) Preoperatively, mice were fasted for 12 h, and mice were anesthetized with 4% isoflurane induction and maintained with 1.5% isoflurane. The mice were subsequently immobilized on a brain stereotaxic apparatus. The bregma and lambda points were exposed by gently wiping the cranial surface with a cotton swab after cutting the scalp. The stereotaxic apparatus was adjusted to align the heights of the bregma and lambda points, thereby leveling the skull. The bregma point was designated as the origin, the coordinates where the injection site was located were located, and the drill was used to drill a small hole in the skull above the injection site.
(§4) 6-OHDA (12.5 μg/μL) was injected into the striatum region (AP+0.5 mm; ML+2.00 mm; DV-3.00 mm and-2.00 mm) of the mice, and 1 μL 6-OHDA was injected into each of the two points at a rate of 0.5 μL/min. The needle was left in place for 3 min after the injection was completed, and then the injection needle was lifted, and the scalp of the mice was sutured and disinfected. The sham operation group was injected with an equal volume of saline containing 0.02% ascorbic acid, and other operations were performed as above. After the procedure, the mice were placed in the cage at an appropriate temperature. After awakening from anesthesia, the mice were kept normally.
The rod-climbing experiment: the rod-climbing experiment was mainly used to test the limb movement ability of mice and to assess the symptoms of motor delay. This experiment evaluated the ability of mice to grasp and maneuver on a pole to descend to their home cage. A cork ball was fixed to an iron pole with a diameter of 1 cm and a length of 65 cm. The head of the mice was put down on the top of the pole, and the mice usually naturally descended down along the pole to return to their cage. The time for the mice to descend to the bottom was recorded. Results were averaged over 3 consecutive measurements.
(§5) The motor function of the mice was comprehensively assessed using the rod-climbing experiment and the hanging experiment at 1, 2, 3, and 4 weeks after drug administration.

[5] = system: neurons in the substantia nigra region of the midbrain of PD mice; test: Niehl's staining, number of neuronal Niehl's bodies in substantia nigra of PD mice; assay type: in vivo, C57 mice; settings: Group L, levodopa: benserazide hydrochloride=4:1, 12 mg/kg ip, after 4 weeks of administration
Description: as §1, §2
Niehl's staining was used to identify Niehl's bodies in neuronal cells.

[6] = system: Parkinson's disease (PD) mice, 6-OHDA method; test: 6-OHDA Parkinson's disease mice, hanging experiment; assay type: in vivo, C57 mice; settings: Group L, levodopa: benserazide hydrochloride=4:1, 12 mg/kg ip, cut-off 60 s
Description: as §1, §3, §4
The hanging experiment: normal mice have climbing activity, which requires proper grip strength and motor coordination, so the hanging experiment may be used to examine motor dysfunction in mice. A metal rod with a diameter of 1.5 mm was placed horizontally on top of the box, and a distance from the metal rod to the bottom of the box was 30 cm. […] Measurement was performed twice, with an interval of 1 min or more between each test, and the results were averaged over the two times.
as §5

SMILES	Seizure grade score (highest, SE model rats) [1]	degree of pathological damage to the substantia nigra region and striatum [2]	TH-positive neurons (a percentage of TH-positive neurons to uninjured side, %) [3] [%]	Rod-climbing time, 1 week of administration [4]	Rod-climbing time, 2 weeks of administration [4] [s]	Rod-climbing time, 3 weeks of administration [4] [s]	Rod-climbing time, 4 weeks of administration [4] [s]	Rod-climbing time, Before administration ([4]; baseline 2 weeks after 6-OHDA) [s]	Number of Niehl's bodies [5]	Hanging time, Before administration ([6]; baseline 2 weeks after 6-OHDA) [s]	Hanging time, 1 week of administration [6] [s]	Hanging time, 2 weeks of administration [6] [s]	Hanging time, 3 weeks of administration [6] [s]	Hanging time, 4 weeks of administration [6] [s]
CCCC(CCC)C(=O)[O-].[Na+] [VPA, sodium valproate, reference compound]	5.00 ± 0.00													
N[C@@H](Cc1ccc(O)c(O)c1)C(=O)O [levodopa, Levodopa, reference compound]		reduced	18.8 ± 7.6	6.39 ± 1.18 ^ s	5.79 ± 0.49	5.34 ± 0.84	4.93 ± 0.59	9.63 ± 2.53	57.8 ± 6.5	43.7 ± 19.5	54.4 ± 8.0	47.0 ± 16.2	48.2 ± 18.1	50.3 ± 12.9
